Experimental data reported in patent US20250127761A1, “Telmisartan Nanosuspension for Therapy of Respiratory Infections and Methods of Making and Using Same” (Soligenix, Inc., priority 2022, published 2025).

Assays:
ANG II type 1 receptor = assay: Inhibition of ANG II-mediated intracellular calcium spike in lung smooth muscle cells; type: cell-based
[1] = cynomolgus monkey, in vivo

With `CCCc1nc2c(C)cc(-c3nc4ccccc4n3C)cc2n1Cc1ccc(-c2ccccc2C(=O)O)cc1` [FD-TEL, telmisartan] the “ANG II-mediated transient [Ca2+]i spike” value (ANG II type 1 receptor) was “equally and entirely abrogated” and the creatine kinase [1] was “significant increase”.
